# Laboratory results from ChEMBL document CHEMBL1201862, “PubChem BioAssay data set” (2004).
#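 Interpolation was linear, between the two tested concentrations surrounding the appropriate level; five concentrations were tested over 48 hours in 96-well plates. The concentration for 50% growth inhibition is given as GI50.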 Calls of active or inactive are those of the source. Cut-off read from the data, not from the text of the source: active = GI50 up to about 1.1 µM and inactive = higher.
# What was measured:
# Test in all cases: NCI anticancer screen, dose series, 48 h
# [1] = system: DMS-114
# [2] = system: DMS-273
# [3] = system: HOP-18
# [4] = system: KM-20L2
# [5] = system: LXFL 529
# [6] = system: M19-MEL
# [7] = system: RXF 631
# [8] = system: SNB-78
# [9] = system: XF498
Structure (SMILES),GI50 [1],GI50 [2],GI50 [3],GI50 [4],GI50 [5],GI50 [6],GI50 [7],GI50 [8],GI50 [9]
O=NN(CCCl)C(=O)NC1CCC(CC2CCC(NC(=O)N(CCCl)N=O)CC2)CC1 (configuration not stated),24.4 µM (inactive),21.9 µM (inactive),> 38 µM (inactive),> 74.1 µM (inactive),36.1 µM (inactive),2.7 µM (inactive),41.7 µM (inactive),29.5 µM (inactive),13 µM (inactive)
O=C1CCCn2c3ccccc3c3ccnc1c32,35 µM (inactive),46.6 µM (inactive),58.3 µM (inactive),51.3 µM (inactive),–,41.5 µM (inactive),–,44.8 µM (inactive),25.4 µM (inactive)
COc1ccc(/C(=N\NC(=O)NN)C(c2ccc(OC)cc2)C2(O)C(=O)Nc3c(Cl)cc(Cl)cc32)cc1 (configuration not stated),90.8 µM (inactive),–,> 100 µM (inactive),> 100 µM (inactive),> 100 µM (inactive),> 100 µM (inactive),> 100 µM (inactive),> 100 µM (inactive),> 100 µM (inactive)
Cc1cc(NC(=O)C(=O)Cc2nc3ccccc3s2)ccc1Cl,> 100 µM (inactive),> 100 µM (inactive),21.8 µM (inactive),> 100 µM (inactive),> 100 µM (inactive),> 100 µM (inactive),–,> 100 µM (inactive),> 100 µM (inactive)
CCOC(=O)/C(=C/c1ccccn1)C(=O)c1ccccc1,14.3 µM (inactive),12.1 µM (inactive),18.3 µM (inactive),15.5 µM (inactive),11.1 µM (inactive),13.5 µM (inactive),13.6 µM (inactive),17 µM (inactive),16.1 µM (inactive)
CC(=O)NC1COC(COC(=O)CCCCCCCCCCNC(=O)c2ccc([N+](=O)[O-])c3c(=O)c4ccccc4[nH]c23)C(O)C1OC(C)C(=O)NC(C(=O)NC(CCC(N)=O)C(=O)OCc1ccccc1)C(C)C (configuration not stated),15.4 µM (inactive),8.69 µM (inactive),16.8 µM (inactive),16.3 µM (inactive),17.7 µM (inactive),3.27 µM (inactive),27.7 µM (inactive),10.2 µM (inactive),5.41 µM (inactive)
Cc1cccc2c1C(=O)OC2(c1cccc2ccccc12)c1cccc2ccccc12,40.7 µM (inactive),> 100 µM (inactive),52.6 µM (inactive),> 100 µM (inactive),> 100 µM (inactive),> 100 µM (inactive),11.3 µM (inactive),–,–
Cc1c2ccc3ccccc3c2c[n+]2ccccc12,4.35 µM (inactive),16.2 µM (inactive),–,19.7 µM (inactive),5.36 µM (inactive),4.48 µM (inactive),–,28.8 µM (inactive),–
CC1=C2C(O)C(C(C)CO)C(O)CC2(C)C(O)CC1 (configuration not stated),> 100 µM (inactive),> 100 µM (inactive),–,> 100 µM (inactive),> 100 µM (inactive),> 100 µM (inactive),> 100 µM (inactive),> 100 µM (inactive),–
CCN(CC)C(=S)SS(C)(=O)=O,–,20.3 µM (inactive),38.2 µM (inactive),–,16.4 µM (inactive),16.4 µM (inactive),–,23.7 µM (inactive),–
CCOC(=O)C12CC1(C(=O)OCC)C1CCC2C1 (configuration not stated),74.3 µM (inactive),> 100 µM (inactive),> 100 µM (inactive),–,> 100 µM (inactive),> 100 µM (inactive),> 100 µM (inactive),–,–
Cc1cccc(/N=C2\NC(=O)C(CC(=O)Nc3ccc(C)cc3C)S2)c1 (configuration not stated),49.8 µM (inactive),> 100 µM (inactive),–,97.7 µM (inactive),> 100 µM (inactive),> 100 µM (inactive),–,> 100 µM (inactive),53.1 µM (inactive)
O=P1(Oc2ccc(Cl)cc2Cl)Oc2ccc3ccccc3c2-c2c(ccc3ccccc23)O1,–,41.3 µM (inactive),61.5 µM (inactive),33.5 µM (inactive),–,19.9 µM (inactive),–,32.4 µM (inactive),24.5 µM (inactive)
CO/C1=C\C(C)=C\C(C)C(O)C(C)C/C(C)=C/C=C/C(OC)C(C(C)C(O)C(C)C2(O)CC(O)C(C)C(C(C)C)O2)OC1=O (configuration not stated),0.00458 µM (active),0.000261 µM (active),10.1 µM (inactive),1.12e-05 µM (active),0.000323 µM (active),0.00374 µM (active),–,10.2 µM (inactive),0.0242 µM (active)
C/C=C/CP(=O)(c1ccccc1)c1ccccc1,> 100 µM (inactive),> 100 µM (inactive),> 100 µM (inactive),> 100 µM (inactive),> 100 µM (inactive),> 100 µM (inactive),–,> 100 µM (inactive),> 100 µM (inactive)
CC(=O)OCC1OC(Nc2nc(O)n(C)c(=O)c2-c2csc(N)n2)C(OC(C)=O)C(OC(C)=O)C1OC(C)=O (configuration not stated),> 100 µM (inactive),–,20 µM (inactive),> 100 µM (inactive),> 100 µM (inactive),> 100 µM (inactive),> 100 µM (inactive),> 100 µM (inactive),–
O=c1c2ccccc2sc2nc(O)nn12,–,> 100 µM (inactive),> 100 µM (inactive),> 100 µM (inactive),> 100 µM (inactive),> 100 µM (inactive),> 100 µM (inactive),> 100 µM (inactive),> 100 µM (inactive)
C/C(=C1/N=C(c2cc([N+](=O)[O-])ccc2Cl)N(C2=CC=C(Cl)CC2)C1=O)c1cc2ccccc2oc1=O,19.3 µM (inactive),–,21.2 µM (inactive),18.7 µM (inactive),13.1 µM (inactive),45.5 µM (inactive),56 µM (inactive),47.9 µM (inactive),–
COc1nc2[nH]ccc2c(=O)n1C,> 100 µM (inactive),> 100 µM (inactive),> 100 µM (inactive),–,> 100 µM (inactive),–,> 100 µM (inactive),> 100 µM (inactive),> 100 µM (inactive)
COc1cccc2c1C(=O)c1c(O)c3c(c(O)c1C2=O)C[C@@](O)(C(=O)CO)CC3OC1CC(NCCCCC(OC(C)=O)OC(C)=O)C(O)C(C)O1 (some centres not stated),0.00402 µM (active),–,0.0033 µM (active),0.00242 µM (active),0.00214 µM (active),0.00345 µM (active),0.00137 µM (active),0.00209 µM (active),–
NC(CO)c1ccccc1 (configuration not stated),> 100 µM (inactive),> 100 µM (inactive),24.7 µM (inactive),> 100 µM (inactive),> 100 µM (inactive),–,–,> 100 µM (inactive),> 100 µM (inactive)
COc1ccc2[nH]c3c(C)c4cc[n+](C)cc4c(C)c3c2c1,0.412 µM (active),1.09 µM (active),3.59 µM (inactive),3.17 µM (inactive),–,0.944 µM (active),–,0.571 µM (active),–
CC(C)c1ccc(O)c(=O)cc1 [GAMMA-THUJAPLICIN],2.92 µM (inactive),3.89 µM (inactive),5.62 µM (inactive),3.99 µM (inactive),5.53 µM (inactive),6.46 µM (inactive),–,20 µM (inactive),15.1 µM (inactive)
